# Legend:
# lambsquarters = assay: Test C preemergence; type: in vivo, Chenopodium album; conditions: Chenopodium album, pre-emergence
# Summary of the method: (§1)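 Sown in loam/sand → sprayed pre-emergence; or grown to 1–4 leaves in peat mix → sprayed post-emergence. Same solvent/surfactant formulation both ways. Greenhouse 13–15 d. Score 0–100 visual.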
# Italian ryegrass = assay: Test A preemergence; type: in vivo, Lolium multiflorum; conditions: 0 to 100 scale where 0 is no effect and 100 is complete control
# Summary of the method: (§2)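 Pre- and postemergence greenhouse screen. Soil: loam + sand. Spray carrier: solvent mixture, non-phytotoxic, with surfactant. Post timing at 1–2 leaves, height 2–10 cm. Readout: visual injury on a 0–100 scale roughly 10 days after application, untreated plants as reference.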
# yellow nutsedge [1] = assay: Test C postemergence; type: in vivo, Cyperus esculentus; conditions: Cyperus, post-emergence
# Summary of the method: as §1
# large (Lg) crabgrass = assay: Test C preemergence; type: in vivo, Digitaria sanguinalis; conditions: Digitaria sanguinalis, pre-emergence
# Summary of the method: as §1
# soybean = assay: Test C postemergence; type: in vivo, Glycine max; conditions: Glycine max, post-emergence
# Summary of the method: as §1
# johnsongrass [2] = assay: Test C postemergence; type: in vivo, Sorghum halepense; conditions: Sorghum halepense, post-emergence
# Summary of the method: as §1
# chickweed = assay: Test C postemergence; type: in vivo, Stellaria media; conditions: Stellaria media, post-emergence
# Summary of the method: as §1
# giant foxtail [3] = assay: Test C preemergence; type: in vivo, Setaria faberii; conditions: Setaria faberi, pre-emergence
# Summary of the method: as §1
# galium = assay: Test C preemergence; type: in vivo, Galium aparine; conditions: Galium, pre-emergence
# Summary of the method: as §1
# giant foxtail [4] = assay: Test A preemergence; type: in vivo, Setaria faberii; conditions: Setaria faberi, pre-emergence, 240 h, 0 to 100 scale where 0 is no effect and 100 is complete control
# Summary of the method: as §2
# johnsongrass [5] = assay: Test C preemergence; type: in vivo, Sorghum halepense; conditions: Sorghum halepense, pre-emergence
# Summary of the method: as §1
# waterhemp = assay: Test C postemergence; type: in vivo, Amaranthus rudis; conditions: Amaranthus tuberculatus, post-emergence
# Summary of the method: as §1
# giant foxtail [6] = assay: Test C postemergence; type: in vivo, Setaria faberii; conditions: Setaria faberi, post-emergence
# Summary of the method: as §1
# yellow nutsedge [7] = assay: Test C preemergence; type: in vivo, Cyperus esculentus; conditions: Cyperus, pre-emergence
# Summary of the method: as §1
structure (smiles),measurement,setting,value
"FC(F)(F)Sc1cnn(-c2ccccc2Oc2ncc(Cl)cn2)c1 [Compound 132, 5-chloro-2-[2-[4-(trifluoromethylthio)-1H-pyrazol-1-yl]phenoxy]pyrimidine]",pest or weed control at 16 g/ha,"lambsquarters; 16 g ai/ha, preemergence, scale 0 to 100 (0 no effect, 100 complete control), read-out: Lambsquarters plant response rating",75%
same,pest or weed control at 62 g/ha,"lambsquarters; 62 g ai/ha, preemergence, scale 0 (no effect) to 100 (complete control), read-out: Lambsquarters plant response rating",100%
same,pest or weed control at 125 g/ha,"lambsquarters; 125 g ai/ha, preemergence, scale 0 (no effect) to 100 (complete control), read-out: Lambsquarters plant response rating",100%
same,pest or weed control at 31 g/ha,"lambsquarters; Preemergence, 31 g ai/ha, scale 0 to 100, 0 no effect, 100 complete control, read-out: Plant response rating, Lambsquarters",55%
same,"Plant response rating, Ryegrass, Italian",Italian ryegrass; 125 g ai/ha,30
same,"Ryegrass, Italian plant response rating",Italian ryegrass; 500 g ai/ha,40
same,pest or weed control at 16 g/ha,"yellow nutsedge [1]; 16 g ai/ha, postemergence, 0 is no effect, 100 is complete control, read-out: Plant response rating (0 to 100), Nutsedge, Yellow",0%
same,pest or weed control at 125 g/ha,"yellow nutsedge [1]; 125 g ai/ha, postemergence, visual rating, scale 0 to 100 (0 no effect, 100 complete control), read-out: Plant response rating, Nutsedge, Yellow",10%
same,pest or weed control at 62 g/ha,"yellow nutsedge [1]; Postemergence, 62 g ai/ha, scale 0 to 100 (0 no effect, 100 complete control), read-out: Plant response rating, Nutsedge, Yellow",0%
same,pest or weed control at 16 g/ha,"large (Lg) crabgrass; 16 g ai/ha, preemergence, scale 0 to 100 (0 no effect, 100 complete control), read-out: Crabgrass, Large plant response rating",65%
same,pest or weed control at 62 g/ha,"large (Lg) crabgrass; 62 g ai/ha, preemergence, scale 0 (no effect) to 100 (complete control), read-out: Crabgrass, Large plant response rating",98%
same,pest or weed control at 125 g/ha,"large (Lg) crabgrass; 125 g ai/ha, preemergence, scale 0 (no effect) to 100 (complete control), read-out: Crabgrass, Large plant response rating",100%
same,pest or weed control at 31 g/ha,"large (Lg) crabgrass; Preemergence, 31 g ai/ha, scale 0 to 100, 0 no effect, 100 complete control, read-out: Plant response rating, Crabgrass, Large",85%
same,"Soybean plant response rating (crop injury, 0-100 scale) at 16 g/ha","soybean; 16 g ai/ha, postemergence, 0 is no effect, 100 is complete control",20%
same,"Soybean plant response rating (crop injury, 0-100 scale) at 125 g/ha","soybean; 125 g ai/ha, postemergence, visual rating, scale 0 to 100 (0 no effect, 100 complete control), read-out: Plant response rating, Soybean",50%
same,"Soybean plant response rating (crop injury, 0-100 scale) at 62 g/ha","soybean; Postemergence, 62 g ai/ha, scale 0 to 100 (0 no effect, 100 complete control)",35%
same,pest or weed control at 16 g/ha,"johnsongrass [2]; 16 g ai/ha, postemergence, 0 is no effect, 100 is complete control, read-out: Plant response rating (0 to 100), Johnsongrass",5%
same,pest or weed control at 125 g/ha,"johnsongrass [2]; 125 g ai/ha, postemergence, visual rating, scale 0 to 100 (0 no effect, 100 complete control), read-out: Plant response rating, Johnsongrass",5%
same,pest or weed control at 62 g/ha,"johnsongrass [2]; Postemergence, 62 g ai/ha, scale 0 to 100 (0 no effect, 100 complete control), read-out: Plant response rating, Johnsongrass",5%
same,pest or weed control at 16 g/ha,"chickweed; 16 g ai/ha, postemergence, 0 is no effect, 100 is complete control, read-out: Plant response rating (0 to 100), Chickweed",10%
same,pest or weed control at 125 g/ha,"chickweed; 125 g ai/ha, postemergence, visual rating, scale 0 to 100 (0 no effect, 100 complete control), read-out: Plant response rating, Chickweed",40%
same,pest or weed control at 62 g/ha,"chickweed; Postemergence, 62 g ai/ha, scale 0 to 100 (0 no effect, 100 complete control), read-out: Plant response rating, Chickweed",30%
same,pest or weed control at 16 g/ha,"giant foxtail [3]; 16 g ai/ha, preemergence, scale 0 to 100 (0 no effect, 100 complete control), read-out: Foxtail, Giant plant response rating",5%
same,pest or weed control at 62 g/ha,"giant foxtail [3]; 62 g ai/ha, preemergence, scale 0 (no effect) to 100 (complete control), read-out: Foxtail, Giant plant response rating",70%
same,pest or weed control at 125 g/ha,"giant foxtail [3]; 125 g ai/ha, preemergence, scale 0 (no effect) to 100 (complete control), read-out: Foxtail, Giant plant response rating",98%
same,pest or weed control at 31 g/ha,"giant foxtail [3]; Preemergence, 31 g ai/ha, scale 0 to 100, 0 no effect, 100 complete control, read-out: Plant response rating, Foxtail, Giant",55%
same,pest or weed control at 16 g/ha,"galium; 16 g ai/ha, preemergence, scale 0 to 100 (0 no effect, 100 complete control), read-out: Galium plant response rating",0%
same,pest or weed control at 62 g/ha,"galium; 62 g ai/ha, preemergence, scale 0 (no effect) to 100 (complete control), read-out: Galium plant response rating",90%
same,pest or weed control at 125 g/ha,"galium; 125 g ai/ha, preemergence, scale 0 (no effect) to 100 (complete control), read-out: Galium plant response rating",90%
same,pest or weed control at 31 g/ha,"galium; Preemergence, 31 g ai/ha, scale 0 to 100, 0 no effect, 100 complete control, read-out: Plant response rating, Galium",0%
same,pest or weed control at 125 g/ha,"giant foxtail [4]; 125 g ai/ha, read-out: Plant response rating, Foxtail, Giant",90%
same,pest or weed control at 500 g/ha,"giant foxtail [4]; 500 g ai/ha, read-out: Foxtail, Giant plant response rating",100%
same,pest or weed control at 16 g/ha,"johnsongrass [5]; 16 g ai/ha, preemergence, scale 0 to 100 (0 no effect, 100 complete control), read-out: Johnsongrass plant response rating",0%
same,pest or weed control at 62 g/ha,"johnsongrass [5]; 62 g ai/ha, preemergence, scale 0 (no effect) to 100 (complete control), read-out: Johnsongrass plant response rating",0%
same,pest or weed control at 125 g/ha,"johnsongrass [5]; 125 g ai/ha, preemergence, scale 0 (no effect) to 100 (complete control), read-out: Johnsongrass plant response rating",35%
same,pest or weed control at 31 g/ha,"johnsongrass [5]; Preemergence, 31 g ai/ha, scale 0 to 100, 0 no effect, 100 complete control, read-out: Plant response rating, Johnsongrass",0%
same,pest or weed control at 16 g/ha,"waterhemp; 16 g ai/ha, postemergence, 0 is no effect, 100 is complete control, read-out: Plant response rating (0 to 100), Waterhemp",45%
same,pest or weed control at 125 g/ha,"waterhemp; 125 g ai/ha, postemergence, visual rating, scale 0 to 100 (0 no effect, 100 complete control), read-out: Plant response rating, Waterhemp",75%
same,pest or weed control at 62 g/ha,"waterhemp; Postemergence, 62 g ai/ha, scale 0 to 100 (0 no effect, 100 complete control), read-out: Plant response rating, Waterhemp",65%
same,pest or weed control at 16 g/ha,"giant foxtail [6]; 16 g ai/ha, postemergence, 0 is no effect, 100 is complete control, read-out: Plant response rating (0 to 100), Foxtail, Giant",0%
same,pest or weed control at 125 g/ha,"giant foxtail [6]; 125 g ai/ha, postemergence, visual rating, scale 0 to 100 (0 no effect, 100 complete control), read-out: Plant response rating, Foxtail, Giant",10%
same,pest or weed control at 62 g/ha,"giant foxtail [6]; Postemergence, 62 g ai/ha, scale 0 to 100 (0 no effect, 100 complete control), read-out: Plant response rating, Foxtail, Giant",5%
same,pest or weed control at 16 g/ha,"yellow nutsedge [7]; 16 g ai/ha, preemergence, scale 0 to 100 (0 no effect, 100 complete control), read-out: Nutsedge, Yellow plant response rating",100%
same,pest or weed control at 62 g/ha,"yellow nutsedge [7]; 62 g ai/ha, preemergence, scale 0 (no effect) to 100 (complete control), read-out: Nutsedge, Yellow plant response rating",15%
same,pest or weed control at 125 g/ha,"yellow nutsedge [7]; 125 g ai/ha, preemergence, scale 0 (no effect) to 100 (complete control), read-out: Nutsedge, Yellow plant response rating",15%
same,pest or weed control at 31 g/ha,"yellow nutsedge [7]; Preemergence, 31 g ai/ha, scale 0 to 100, 0 no effect, 100 complete control, read-out: Plant response rating, Nutsedge, Yellow",0%
